The series can be described thus: Solubility of enzalutamide in water. The format is physicochemical. The conditions noted are these: 20° C.±5° C. An excerpt: The term “to improve solubility” as used herein means that the solubility, the dissolved concentration, or the dissolved rate of enzalutamide in a solvent is increased.
It is possible to obtain good solubility and/or good dissolution properties by applying the technology of the present invention. Further, it is possible to obtain good oral absorbability by applying the technology of the present invention.

Molecules are shown by their SMILES. Values after ≈ are worked out from the molar mass of the structure shown.

The term solubility denotes the concentration that dissolves in the medium under given conditions. Turning to `CNC(=O)c1ccc(N2C(=S)N(c3ccc(C#N)c(C(F)(F)F)c3)C(=O)C2(C)C)cc1F` [Enzalutamide, 4-{3-[4-cyano-3-(trifluoromethyl)phenyl]-5,5-dimethyl-4-oxo-2-sulfanylideneimidazolidin-1-yl}-2-fluoro-N-methylbenzamide], the concentration in solution (solubility) was 2 µg/mL (≈ 4.31 µM).

The values are drawn from US12036315B2, “Pharmaceutical composition for oral administration comprising enzalutamide” (Astellas Pharma Inc., priority 2017, dated 2024).
